17 molecules from patent publication US6162815A, “RXR-agonist polycyclic aromatic compounds, pharmaceutical/cosmetic compositions comprising said compound and uses thereof” (Centre International de Recherches Dermatologiques Galderma, priority 1994, dated 2000) can be followed below.

Assay [1] concerns RXR. The experiment in a line: RXR transactivation test. The assay is classed as cell-based. Particulars: for RXR transactivation test (%): tested compound at 10 μM, relative to control 6-[1-(3,5,5,8,8-pentamethyl-5,6,7,8-tetrahydronaphthalen-2-yl)cyclopropyl]nicotinic acid at 10^-8 M; for AC50: read-out: RXR transactivation AC 50. The protocol: We further tested compounds according to the claimed invention to ascertain their activity in assays that identify molecules as RXR-agonists. […] These references are incorporated by reference in their entirety herein.
The percentage values in the Table correspond to the percentage of activities of the tested compound at a concentration of 10 μM. This is relative to a control compound, 6-[1-(3,5,5,8,8-pentamethyl-5,6,7,8-tetrahydronaphthalen-2-yl)cyclopropyl]nicotinic acid, at a concentration of 10^-8 M.

In assay [2] the target is RXR. The experiment in a line: RXR binding.

pKi: −log10 of the molar value.

As a reminder, the pKi is −log10 of the Ki, conventionally taken in molar units. Read a high pKi as a low Ki.

Regarding `CC1(C)CCC(C)(C)c2cc([S+]([O-])c3ccc(C(=O)O)cc3)ccc21` (centres unmarked) [Example 3, 4-(5,6,7,8-tetrahydro-5,5,8,8-tetramethyl-2-naphthylsulfinyl)benzoic acid], the “RXR transactivation test (%)” value with RXR [1] is recorded as 25%.

Regarding `CCNC(=O)c1ccc(Sc2cc3c(cc2C)C(C)(C)CCC3(C)C)cc1` [Example 25, N-ethyl-4-(3,5,5,8,8-pentamethyl-5,6,7,8-tetrahydro-2-naphthylthio)benzamide], in the assay on RXR [1], the “RXR transactivation test (%)” value stood at 15%.

`Cc1cc2c(cc1Sc1ccc(C(=O)O)c(Cl)c1)C(C)(C)CCC2(C)C` [Example 19, 2-chloro-4-(3,5,5,8,8-pentamethyl-5,6,7,8-tetrahydro-2-naphthylthio)benzoic acid]: in the assay with RXR [1], the AC50 is 0.656 µM and the “RXR transactivation test (%)” value amounted to 58%.

On to `Cc1cc2c(cc1Sc1ccc(C=O)cc1)C(C)(C)CCC2(C)C` [Example 24, 4-(3,5,5,8,8-pentamethyl-5,6,7,8-tetrahydro-2-naphthylthio)benzaldehyde], for which, in the assay with RXR [1], the “RXR transactivation test (%)” value is reported as 17%.

Molecule `Cc1cc2c(cc1Sc1ccc(C(=O)O)cc1)C(C)(C)CCC2(C)C` [Example 8, 4-(3,5,5,8,8-pentamethyl-5,6,7,8-tetrahydro-2-naphthylthio)benzoic acid] had a pKi at RXR [2] of 5.43. Moreover, in the assay with RXR [1], the AC50 is 0.3 µM and the “RXR transactivation test (%)” value is 118%.

With `CC1(C)CCC(C)(C)c2cc(Oc3ccc(C(=O)O)cc3)ccc21` [Example 1, 4-(5,6,7,8-tetrahydro-5,5,8,8-tetramethyl-2-naphthyloxy)benzoic acid], in the assay on RXR [1], the “RXR transactivation test (%)” value turned out to be 33%.

For `CC1(C)CCC(C)(C)c2cc(Sc3ccc(C(=O)O)s3)ccc21` [Example 6, 5-(5,6,7,8-tetrahydro-5,5,8,8-tetramethyl-2-naphthylthio)-2-thiophenecarboxylic acid], the “RXR transactivation test (%)” value in the assay with RXR [1] was determined as 39%.

In the case of `Cc1cc2c(cc1Oc1ccc(C(=O)O)cc1)C(C)(C)CCC2(C)C` [Example 7, 4-(3,5,5,8,8-pentamethyl-5,6,7,8-tetrahydro-2-naphthyloxy)benzoic acid], in the assay with RXR [1], the AC50 was determined as 0.355 µM and the “RXR transactivation test (%)” value worked out at 48%.

Regarding `Cc1cc2c(cc1Sc1ccc(C(=O)Nc3ccc(O)cc3)cc1)C(C)(C)CCC2(C)C` [Example 26, N-4-hydroxyphenyl-4-(3,5,5,8,8-pentamethyl-5,6,7,8-tetrahydro-2-naphthylthio)benzamide], in the assay on RXR [1], the “RXR transactivation test (%)” value is 14%.

In turn, `CCc1cc2c(cc1Oc1ccc(C(=O)O)cc1)C(C)(C)CCC2(C)C` [Example 9, 4-(3-ethyl-5,5,8,8-tetramethyl-5,6,7,8-tetrahydro-2-naphthyloxy)benzoic acid] gave a pKi at RXR [2] of 5.55. For the same molecule, in the assay with RXR [1], the AC50 amounted to 0.279 µM and the “RXR transactivation test (%)” value amounted to 108%.

The molecule `CC(C)c1cc2c(cc1Oc1ccc(C(=O)O)cc1)C(C)(C)CCC2(C)C` [Example 10, 4-(3-isopropyl-5,5,8,8-tetramethyl-5,6,7,8-tetrahydro-2-naphthyloxy)benzoic acid] showed a pKi at RXR [2] of 5.61. Moreover, in the assay with RXR [1], the AC50 is 0.495 µM and the “RXR transactivation test (%)” value was 81%.

For the molecule `CC1(C)CCC(C)(C)c2cc(Nc3ccc(C(=O)O)cc3)ccc21` [Example 5, 4-(5,6,7,8-tetrahydro-5,5,8,8-tetramethyl-2-naphthylamino)benzoic acid], the “RXR transactivation test (%)” value in the assay on RXR [1] is reported as 21%.

On to `CCc1cc2c(cc1Sc1ccc(C(=O)O)cc1)C(C)(C)CCC2(C)C` [Example 20, 4-(3-ethyl-5,6,7,8-tetrahydro-5,5,8,8-tetramethyl-2-naphthylthio)benzoic acid], for which the pKi at RXR [2] is 5.40. Further, the “RXR transactivation test (%)” value in the assay with RXR [1] is recorded as 41%.

Consider `Cc1cc2c(cc1Sc1ccc(CO)cc1)C(C)(C)CCC2(C)C` [Example 23, 4-(3,5,5,8,8-pentamethyl-5,6,7,8-tetrahydro-2-naphthylthio)benzenemethanol], for which the “RXR transactivation test (%)” value in the assay on RXR [1] was found to be 3%.

Turning to `Cc1cc2c(cc1Sc1ccc(C(=O)O)cn1)C(C)(C)CCC2(C)C` [Example 17, 6-(3,5,5,8,8-pentamethyl-5,6,7,8-tetrahydro-2-naphthylthio)nicotinic acid], the pKi on RXR [2] was 6.27. Moreover, in the assay on RXR [1], the AC50 was found to be 0.048 µM and the “RXR transactivation test (%)” value is listed as 102%.

Regarding `CC1(C)CCC(C)(C)c2cc(Oc3ccc(C(=O)O)cc3)c(Br)cc21` [Example 13, 4-(3-bromo-5,6,7,8-tetrahydro-5,5,8,8-tetramethyl-2-naphthyloxy)benzoic acid], the pKi at RXR [2] was 5.95. Also, the “RXR transactivation test (%)” value in the assay on RXR [1] came to 57%.

In the case of `CCc1cc2c(cc1Oc1ccc(C(=O)O)cc1C)C(C)(C)CCC2(C)C` [Example 16, 3-methyl-4-(3-ethyl-5,6,7,8-tetrahydro-5,5,8,8-tetramethyl-2-naphthyloxy)benzoic acid], the “RXR transactivation test (%)” value in the assay on RXR [1] came out at 38%.
